Results taken from ChEMBL document CHEMBL1667753, “Synthesis of 2-(aminomethyl)aziridines and their microwave-assisted ring opening to 1,2,3-triaminopropanes as novel antimalarial pharmacophores” (Eur J Med Chem, 2011).

Key:
Plasmodium falciparum [1] = assay: Antiplasmodial activity against chloroquine-resistant Plasmodium falciparum Dd2 by parasite LDH assay; format: functional, organism-based
Plasmodium falciparum [2] = assay: Resistance index, ratio of IC50 for chloroquine-resistant Plasmodium falciparum Dd2 to IC50 for chloroquine-sensitive Plasmodium falciparum D10; format: functional
Plasmodium falciparum [3] = assay: Antiplasmodial activity against chloroquine-sensitive Plasmodium falciparum D10 by parasite LDH assay; format: functional, organism-based
CHO = assay: Cytotoxicity against CHO cells by MTT assay; format: cell-based; details: Cricetulus griseus
[4] = Selectivity index, ratio of IC50 for CHO cells to IC50 for chloroquine-sensitive Plasmodium falciparum D10; format: toxicity, cell-based; details: hamster, read-out: Ratio IC50

Compound | IC50 (Plasmodium falciparum [1]) | Ratio IC50 (Plasmodium falciparum [2]) | IC50 (Plasmodium falciparum [3]) | IC50 (CHO) | selectivity ratio [4]
CCN(CC)CC(CN(CC)CC)NCc1ccccc1 | 30.2 µM | 1.3 | 23.7 µM | > 300 µM | 
CCN(CC)CC(CN(CC)CC)NCc1ccc(Cl)cc1 | 19.8 µM | 2.4 | 8.41 µM | 76.4 µM | 9.1
CCN(CC)CC(CN(CC)CC)NCc1ccc(OC)cc1 | 13.5 µM | 2 | 6.66 µM | 170 µM | 24.2
Nc1ncnc2c1ncn2CC1CN1Cc1ccccc1 (racemic) |  |  | > 350 µM |  | 
Nc1ncnc2c1ncn2CC1CN1Cc1ccc(Cl)cc1 (racemic) |  |  | > 300 µM |  | 
COc1ccc(CN2CC2Cn2cnc3c(N)ncnc32)cc1 (racemic) |  |  | 267 µM |  | 
Cc1cn(CC2CN2Cc2ccc(Cl)cc2)c(=O)[nH]c1=O (racemic) |  |  | 138 µM |  | 
COc1ccc(CN2CC2Cn2cc(C)c(=O)[nH]c2=O)cc1 (racemic) |  |  | 172 µM |  | 
c1ccc(CN2CC2Cn2cncn2)cc1 (racemic) |  |  | 80.7 µM |  | 
Clc1ccc(CN2CC2Cn2cncn2)cc1 (racemic) |  |  | 126 µM |  | 
COc1ccc(CN2CC2Cn2cncn2)cc1 (racemic) | 23.2 µM | 5.6 | 4.18 µM | > 400 µM | 
CCN(CC)CC1CN1Cc1ccccc1 (racemic) | 48.3 µM | 3.2 | 15.2 µM | 402 µM | 26.3
CCN(CC)CC1CN1Cc1ccc(Cl)cc1 (racemic) | 23.7 µM | 3.7 | 6.49 µM | 247 µM | 38.1
CCN(CC)CC1CN1Cc1ccc(OC)cc1 (racemic) | 18 µM | 2.1 | 8.54 µM | 193 µM | 22.6
CCN(CC)CC(Cn1cnc2c(N)ncnc21)NCc1ccccc1 (racemic) |  |  | 214 µM |  | 
CCN(CC)CC(Cn1cnc2c(N)ncnc21)NCc1ccc(Cl)cc1 (racemic) |  |  | 78.2 µM |  | 
CCN(CC)CC(Cn1cnc2c(N)ncnc21)NCc1ccc(OC)cc1 (racemic) |  |  | 81.9 µM |  | 
CCN(CC)CC(Cn1cc(C)c(=O)[nH]c1=O)NCc1ccc(Cl)cc1 (racemic) |  |  | 71.7 µM |  | 
CCN(CC)CC(Cn1cc(C)c(=O)[nH]c1=O)NCc1ccc(OC)cc1 (racemic) |  |  | 128 µM |  | 
CCN(CC)CC(Cn1cncn1)NCc1ccccc1 (racemic) | 98.8 µM | 2.3 | 42.9 µM | > 300 µM | 
CCN(CC)CC(Cn1cncn1)NCc1ccc(Cl)cc1 (racemic) | 13.1 µM | 2 | 6.52 µM | > 300 µM | 
CCN(CC)CC(Cn1cncn1)NCc1ccc(OC)cc1 (racemic) | 80.9 µM | 41.1 | 1.98 µM | 159 µM | 
CC[C@H]1CN2CCc3cc(OC)c(OC)cc3[C@@H]2C[C@@H]1C[C@H]1NCCc2cc(OC)c(OC)cc21 [EMETINE] |  |  |  | 0.127 µM | 
